Data taken from patent US20240092835A1, “NOVEL PEPTIDES CAPABLE OF ALTERING NK CELL ACTIVITY” (Massachusetts Institute of Technology, priority 2022, published 2024).
Where no end group is shown, it is not given here.

How the values were obtained:
NKG2A−/NKG2C+ NK cells = experiment: NK cell activation markers in NKG2A-/NKG2C+ NK cells incubated with peptide and K562 expressing HLA-E (activation); assay type: cell-based, human; conditions: for percentage of CCL3+ NK cells / percentage of CD107+ NK cells / percentage of IFNG+ NK cells / percentage of TNF+ NK cells: NKG2A-/NKG2C+ NK cells, K562/HLA-E
Summary of the method: (§1)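 Human myelogenous leukemia K562 cells displaying HLA-E carry the test peptides (human or HCMV origin) and are presented to NK cells; surface activation markers are scored by percent positive cells.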

NKG2A−/NKG2C− NK cells = experiment: NK cell activation markers in control NKG2A-/NKG2C- NK cells incubated with peptide and K562 expressing HLA-E; assay type: cell-based, human
Summary of the method: as §1

HLA-E = biological target: T1, HLA-E (Homo sapiens, UniProt P13747); experiment: HLA-E surface stabilization assay with RMA-S/HLA-E cells; assay type: cell-based; conditions: 30 μM peptide, 16 hours
T1 construct: expressed in transfected cells; host or cells: RMA-S/HLA-E cells (antigen processing-defective lymphoma cell line)
Procedure: HLA-E surface expression was assessed by measuring geometric mean fluorescence intensity (GeoMFI) in RMA-S cells following immunofluorescence staining with an anti-HLA-E antibody (Table 14). Increased GeoMFI was indicative of increased HLA-E surface expression stability following novel peptide exposures (FIG. 3).

HLA-E surface expression stabilization strength (in words) (HLA-E): moderate | HLA-E surface expression stability (GeoMFI) (HLA-E; anti-HLA-E antibody, Trial 1): 2019 GeoMFI
Sequence: TLPKRGLFL [human2, TLPKRGLFL]
effect on NKG2A−/NKG2C+ NK cell activation (in words) (NKG2A−/NKG2C+ NK cells; K562 expressing HLA-E, CD107a, IFNG, TNF, CCL3): strong activating effects | percentage of CCL3+ NK cells (NKG2A−/NKG2C+ NK cells; Trial 1): 80.9% | percentage of CD107+ NK cells (NKG2A−/NKG2C+ NK cells; Trial 1): 80% | percentage of IFNG+ NK cells (NKG2A−/NKG2C+ NK cells; Trial 1): 69.5% | percentage of TNF+ NK cells (NKG2A−/NKG2C+ NK cells; Trial 1): 57.3% | percentage of CCL3+ NK cells (NKG2A−/NKG2C+ NK cells; Trial 2): 92.4% | percentage of CD107+ NK cells (NKG2A−/NKG2C+ NK cells; Trial 2): 87.3% | percentage of IFNG+ NK cells (NKG2A−/NKG2C+ NK cells; Trial 2): 82.3% | percentage of TNF+ NK cells (NKG2A−/NKG2C+ NK cells; Trial 2): 72.6% | percentage of CCL3+ NK cells (NKG2A−/NKG2C+ NK cells; Trial 3): 86.1% | percentage of CD107+ NK cells (NKG2A−/NKG2C+ NK cells; Trial 3): 88.3% | percentage of IFNG+ NK cells (NKG2A−/NKG2C+ NK cells; Trial 3): 83% | percentage of TNF+ NK cells (NKG2A−/NKG2C+ NK cells; Trial 3): 73.8% | percentage of CCL3+ NK cells (NKG2A−/NKG2C+ NK cells; Trial 4): 71.8% | percentage of CD107+ NK cells (NKG2A−/NKG2C+ NK cells; Trial 4): 71.7% | percentage of IFNG+ NK cells (NKG2A−/NKG2C+ NK cells; Trial 4): 64.5% | percentage of TNF+ NK cells (NKG2A−/NKG2C+ NK cells; Trial 4): 56.2% | percentage of CCL3+ NK cells (NKG2A−/NKG2C+ NK cells; Trial 5): 75.8% | percentage of CD107+ NK cells (NKG2A−/NKG2C+ NK cells; Trial 5): 69.9% | percentage of IFNG+ NK cells (NKG2A−/NKG2C+ NK cells; Trial 5): 63.2% | percentage of TNF+ NK cells (NKG2A−/NKG2C+ NK cells; Trial 5): 57.8% | percentage of CCL3+ NK cells (NKG2A−/NKG2C+ NK cells; Trial 6): 62.1% | percentage of CD107+ NK cells (NKG2A−/NKG2C+ NK cells; Trial 6): 59.3% | percentage of IFNG+ NK cells (NKG2A−/NKG2C+ NK cells; Trial 6): 50.7% | percentage of TNF+ NK cells (NKG2A−/NKG2C+ NK cells; Trial 6): 41.1% | percentage CCL3+ NK cells (NKG2A−/NKG2C− NK cells; Trial 1): 31.9% | percentage CD107+ NK cells (NKG2A−/NKG2C− NK cells; Trial 1): 26.1% | percentage TNF+ NK cells (NKG2A−/NKG2C− NK cells; Trial 1): 4.12% | percentage of IFNG+ NK cells (NKG2A−/NKG2C− NK cells; Trial 1): 16.2% | percentage CCL3+ NK cells (NKG2A−/NKG2C− NK cells; Trial 2): 57.4% | percentage CD107+ NK cells (NKG2A−/NKG2C− NK cells; Trial 2): 34.1% | percentage TNF+ NK cells (NKG2A−/NKG2C− NK cells; Trial 2): 8.51% | percentage of IFNG+ NK cells (NKG2A−/NKG2C− NK cells; Trial 2): 24.9% | percentage CCL3+ NK cells (NKG2A−/NKG2C− NK cells; Trial 3): 49.9% | percentage CD107+ NK cells (NKG2A−/NKG2C− NK cells; Trial 3): 46.1% | percentage TNF+ NK cells (NKG2A−/NKG2C− NK cells; Trial 3): 15.8% | percentage of IFNG+ NK cells (NKG2A−/NKG2C− NK cells; Trial 3): 37.4% | percentage CCL3+ NK cells (NKG2A−/NKG2C− NK cells; Trial 4): 34.8% | percentage CD107+ NK cells (NKG2A−/NKG2C− NK cells; Trial 4): 30.1% | percentage TNF+ NK cells (NKG2A−/NKG2C− NK cells; Trial 4): 9.02% | percentage of IFNG+ NK cells (NKG2A−/NKG2C− NK cells; Trial 4): 18.9% | percentage CCL3+ NK cells (NKG2A−/NKG2C− NK cells; Trial 5): 25.6% | percentage CD107+ NK cells (NKG2A−/NKG2C− NK cells; Trial 5): 18.1% | percentage TNF+ NK cells (NKG2A−/NKG2C− NK cells; Trial 5): 6.52% | percentage of IFNG+ NK cells (NKG2A−/NKG2C− NK cells; Trial 5): 13.9% | percentage CCL3+ NK cells (NKG2A−/NKG2C− NK cells; Trial 6): 24.6% | percentage CD107+ NK cells (NKG2A−/NKG2C− NK cells; Trial 6): 19.1% | percentage TNF+ NK cells (NKG2A−/NKG2C− NK cells; Trial 6): 5.25% | percentage of IFNG+ NK cells (NKG2A−/NKG2C− NK cells; Trial 6): 10%
